Test results reported in ChEMBL document CHEMBL3414557, “Synthesis, molecular docking and Brugia malayi thymidylate kinase (BmTMK) enzyme inhibition study of novel derivatives of [6]-shogaol” (Eur J Med Chem, 2015).
Active and inactive are the calls of the source. The calls are words filed in the database; no cut-off is given here.

What was measured:
[1] = (§1) Inhibition of Brugia malayi thymidylate kinase using dTMP substrate by spectrophotometric assay
Brugia malayi = experiment: as §1

SMILES | Ki [1] [µM] | inhibition (Brugia malayi)
CCCCC/C=C/C(=O)CCc1ccc(O)c(OC)c1 [SHOGAOL] | 10.8 | –
CCCCCC(CC(=O)CCc1ccc(OC(=O)c2ccc(OC)cc2)c(OC)c1)n1cc(C)c(=O)n(C(=O)c2ccc(OC)cc2)c1=O (centres undefined) | 20.1 | –
CCCCCC(CC(=O)CCc1ccc(OC(=O)c2ccco2)c(OC)c1)n1cc(C)c(=O)n(C(=O)c2ccco2)c1=O (centres undefined) | 20.3 | –
CCCCCC(CC(=O)CCc1ccc(O)c(OC)c1)Nc1cc(C)ccn1 (centres undefined) | 21.6 | –
CCCCCC(CC(=O)CCc1ccc(O)c(OC)c1)n1cc(C)c(=O)[nH]c1=O (centres undefined) | 6.57 | –
CCCCCC(CC(=O)CCc1ccc(OS(C)(=O)=O)c(OC)c1)n1cc(C)c(=O)[nH]c1=O (centres undefined) | 66.1 | –
CCCCCC(CC(=O)CCc1ccc(O)c(OC)c1)Nc1ccc(C)cn1 (centres undefined) | 40.6 | –
CCCCCC(CC(=O)CCc1ccc(OC(=O)c2ccc(Cl)nc2)c(OC)c1)Nc1cc(C)ccn1 (centres undefined) | 30.4 | –
CCCCCC(CC(=O)CCc1ccc(O)c(OC)c1)n1cnc2c(N)ncnc21 (centres undefined) | 9.01 | –
CCCCCC(CC(=O)CCc1ccc(O)c(OC)c1)n1cc(Br)c(=O)[nH]c1=O (centres undefined) | 8.32 | –
CCCCCC(CC(=O)CCc1ccc(O)c(OC)c1)Nc1ncccc1C (centres undefined) | 11.1 | –
CCCCCC(CC(=O)CCc1ccc(OS(=O)(=O)c2ccc(C)cc2)c(OC)c1)n1cc(C)c(=O)[nH]c1=O (centres undefined) | 45.7 | –
CCCCCC(CC(=O)CCc1ccc(OC(=O)c2ccc(Cl)nc2)c(OC)c1)n1cc(C)c(=O)[nH]c1=O (centres undefined) | – | inactive
CCCCCC(CC(=O)CCc1ccc(OC(=O)/C=C/c2ccc(F)cc2)c(OC)c1)n1cc(C)c(=O)[nH]c1=O (centres undefined) | 44.4 | –
